# Measured values as given in ChEMBL document CHEMBL4834484, “Identification of isoform/domain-selective fragments from the selection of DNA-encoded dynamic library” (Bioorg Med Chem, 2021).
# Legend:
# [1] = biological target: T1, NAD-dependent protein deacetylase sirtuin-2 (Homo sapiens, UniProt Q8IXJ6); test: Inhibition of human recombinant SIRT2 assessed as inhibition of substrate deacetylation using Gln-Pro-Lys-Lys- (epsilon acetyl) AMC peptide as substrate in presence of NAD+ measured by fluorescence based analysis
# T1 sequence (Q8IXJ6 whole entry): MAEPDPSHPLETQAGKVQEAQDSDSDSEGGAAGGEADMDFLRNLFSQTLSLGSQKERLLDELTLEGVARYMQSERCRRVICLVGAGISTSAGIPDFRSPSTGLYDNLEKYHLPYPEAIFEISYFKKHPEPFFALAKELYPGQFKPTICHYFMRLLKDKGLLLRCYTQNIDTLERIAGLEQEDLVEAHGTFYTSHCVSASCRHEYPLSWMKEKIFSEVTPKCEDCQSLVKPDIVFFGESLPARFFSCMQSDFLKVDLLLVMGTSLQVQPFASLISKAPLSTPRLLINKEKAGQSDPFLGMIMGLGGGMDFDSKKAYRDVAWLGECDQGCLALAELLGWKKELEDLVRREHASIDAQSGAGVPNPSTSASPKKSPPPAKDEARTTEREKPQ
# [2] = biological target: T2, NAD-dependent protein deacetylase sirtuin-1 (Homo sapiens, UniProt Q96EB6); test: Inhibition of human recombinant SIRT1 assessed as inhibition of substrate deacetylation using Gln-Pro-Lys-Lys- (epsilon acetyl) AMC peptide as substrate in presence of NAD+ measured by fluorescence based analysis
# T2 sequence (Q96EB6 whole entry): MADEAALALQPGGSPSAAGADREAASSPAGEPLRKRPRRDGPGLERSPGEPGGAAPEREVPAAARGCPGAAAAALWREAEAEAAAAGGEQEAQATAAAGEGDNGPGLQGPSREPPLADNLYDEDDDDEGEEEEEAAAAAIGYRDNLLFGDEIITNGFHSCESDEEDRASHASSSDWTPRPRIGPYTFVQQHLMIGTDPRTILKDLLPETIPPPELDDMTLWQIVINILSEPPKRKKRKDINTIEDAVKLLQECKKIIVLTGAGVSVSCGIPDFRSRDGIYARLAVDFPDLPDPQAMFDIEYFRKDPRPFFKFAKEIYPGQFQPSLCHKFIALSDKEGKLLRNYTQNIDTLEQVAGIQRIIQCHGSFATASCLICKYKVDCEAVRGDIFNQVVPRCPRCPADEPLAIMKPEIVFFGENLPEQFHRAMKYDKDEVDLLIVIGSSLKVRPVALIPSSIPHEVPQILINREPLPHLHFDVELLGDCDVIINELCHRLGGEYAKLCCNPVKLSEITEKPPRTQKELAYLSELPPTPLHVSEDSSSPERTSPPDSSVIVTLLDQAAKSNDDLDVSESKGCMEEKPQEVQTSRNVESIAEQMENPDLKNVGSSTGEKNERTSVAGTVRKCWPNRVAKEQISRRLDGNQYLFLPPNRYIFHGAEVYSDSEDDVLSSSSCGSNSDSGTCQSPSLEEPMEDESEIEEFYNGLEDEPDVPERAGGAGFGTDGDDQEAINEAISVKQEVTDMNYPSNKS
# [3] = biological target: T3, NAD-dependent protein deacetylase sirtuin-3, mitochondrial (Homo sapiens, UniProt Q9NTG7); test: Inhibition of human recombinant SIRT3 assessed as inhibition of substrate deacetylation using Gln-Pro-Lys-Lys- (epsilon acetyl) AMC peptide as substrate in presence of NAD+ measured by fluorescence based analysis
# T3 sequence (Q9NTG7 whole entry): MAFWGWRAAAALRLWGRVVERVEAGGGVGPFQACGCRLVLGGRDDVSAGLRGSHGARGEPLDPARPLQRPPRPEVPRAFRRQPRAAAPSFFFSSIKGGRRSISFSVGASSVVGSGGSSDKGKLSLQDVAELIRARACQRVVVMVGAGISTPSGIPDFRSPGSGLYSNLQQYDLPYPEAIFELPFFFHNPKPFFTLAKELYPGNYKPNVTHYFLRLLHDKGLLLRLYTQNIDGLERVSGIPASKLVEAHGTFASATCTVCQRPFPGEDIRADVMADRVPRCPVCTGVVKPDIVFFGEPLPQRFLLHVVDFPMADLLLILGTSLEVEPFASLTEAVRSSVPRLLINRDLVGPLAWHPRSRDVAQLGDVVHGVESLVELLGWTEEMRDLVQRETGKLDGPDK
# [4] = biological target: T1, NAD-dependent protein deacetylase sirtuin-2; test: Binding affinity to chip-immobilized recombinant human SIRT2 measured after 300 secs by surface plasmon resonance method
# [5] = biological target: T2, NAD-dependent protein deacetylase sirtuin-1; test: Binding affinity to chip-immobilized recombinant human SIRT1 measured after 300 secs by surface plasmon resonance method
# [6] = biological target: T4, Bromodomain-containing protein 4 (Homo sapiens, UniProt O60885); test: Displacement of SGRG-K(Ac)-GG-K(Ac)-GLG-K(Ac)-GGA-K(Ac)-RHRKVGG-K(Biotin) from Europium chelated human BRD4 bromodomain 2 (342 to 460 residues) measured after 2 hrs by TR-FRET assay
# [7] = biological target: T4, Bromodomain-containing protein 4; test: Displacement of SGRG-K(Ac)-GG-K(Ac)-GLG-K(Ac)-GGA-K(Ac)-RHRKVGG-K(Biotin) from Europium chelated human BRD4 bromodomain 1 (49 to 170 residues) measured after 2 hrs by TR-FRET assay
# [8] = biological target: T3, NAD-dependent protein deacetylase sirtuin-3, mitochondrial; test: Binding affinity to chip-immobilized recombinant human SIRT3 measured after 300 secs by surface plasmon resonance method
# [9] = biological target: T5, NAD-dependent protein deacylase sirtuin-5, mitochondrial (Homo sapiens, UniProt Q9NXA8); test: Binding affinity to chip-immobilized recombinant human SIRT5 measured after 300 secs by surface plasmon resonance method
# [10] = biological target: T5, NAD-dependent protein deacylase sirtuin-5, mitochondrial; test: Inhibition of human recombinant SIRT5 assessed as inhibition of substrate desuccinylation using Fluor de Lys-Succinyl green peptide as substrate in presence of NAD+ measured by fluorometric assay
# T5 sequence (Q9NXA8 whole entry): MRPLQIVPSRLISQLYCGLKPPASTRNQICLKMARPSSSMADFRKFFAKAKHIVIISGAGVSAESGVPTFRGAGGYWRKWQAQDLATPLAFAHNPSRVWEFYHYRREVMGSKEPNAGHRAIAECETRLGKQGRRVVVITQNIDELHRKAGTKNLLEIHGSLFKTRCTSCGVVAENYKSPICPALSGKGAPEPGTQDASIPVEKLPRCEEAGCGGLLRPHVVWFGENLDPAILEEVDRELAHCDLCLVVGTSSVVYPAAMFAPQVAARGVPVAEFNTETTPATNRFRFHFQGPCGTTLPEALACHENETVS
SMILES,IC50 [1] [µM],Ki [1] [µM],other results
O=C1CC(C(=O)NCCCCCCNCC(=O)C2CC3CCC2C3)c2ccccc21 (stereo not given),938,272,IC50 [2]: 78 µM; Ki [2]: 48 µM; IC50 [3]: 621 µM; Ki [3]: 447 µM
COc1cc(CC(=O)NCCOCCOCCNC(=O)c2cn3c4c(c(N5CCN(C)CC5)c(F)cc4c2=O)OCC3C)cc(OC)c1OC (stereo not given),32,9,Kd [4]: 32 µM
O=C(NCCCCCCNC(=O)c1cccc(-c2cccnc2)c1)c1cccc(-c2cccnc2)c1,39,12,Kd [4]: 40 µM; Kd [5]: 118 µM; Ki [2]: 73 µM
CNC(=O)c1cn2c3c(c(N4CCN(C)CC4)c(F)cc3c1=O)OCC2C (stereo not given),,,IC50 [6]: 321 µM; IC50 [7]: 1130 µM
CC1COc2c(N3CCN(C)CC3)c(F)cc3c(=O)c(C(=O)NCCCCCCNC(=O)CCc4nc(-c5ccncc5)no4)cn1c23 (stereo not given),107,31,
CC1COc2c(N3CCN(C)CC3)c(F)cc3c(=O)c(C(=O)NCCOCCOCCOCCNC(=O)c4cn5c6c(c(N7CCN(C)CC7)c(F)cc6c4=O)OCC5C)cn1c23 (stereo not given),316,92,
CSCC(=O)N(C)CCCN1c2ccccc2CCc2ccccc21,,,IC50 [6]: 153 µM; IC50 [7]: 1320 µM
O=C1CC(C(=O)NCCOCCOCCOCCNCC(=O)C2CC3CCC2C3)c2ccccc21 (stereo not given),,,IC50 [2]: 1050 µM; Ki [2]: 645 µM
CC1COc2c(N3CCN(C)CC3)c(F)cc3c(=O)c(C(=O)NCCOCCOCCNC(=O)CCc4nc(-c5ccncc5)no4)cn1c23 (stereo not given),186,54,
COc1cc(CC(=O)NCCCNC(=O)c2cccc(-c3cccnc3)c2)cc(OC)c1OC,299,87,
CC1COc2c(N3CCN(C)CC3)c(F)cc3c(=O)c(C(=O)NCCCCCC(=O)N(C)CCCN4c5ccccc5CCc5ccccc54)cn1c23 (stereo not given),,,IC50 [6]: 30 µM; IC50 [7]: 107 µM
CSCC(=O)NCCCCCC(=O)N(C)CCCN1c2ccccc2CCc2ccccc21,,,IC50 [6]: 231 µM; IC50 [7]: 972 µM
CC1COc2c(N3CCN(C)CC3)c(F)cc3c(=O)c(C(=O)NCc4ccc(CNC(=O)c5cn6c7c(c(N8CCN(C)CC8)c(F)cc7c5=O)OCC6C)cc4)cn1c23 (stereo not given),186,54,
COc1cc(CC(=O)NCc2ccc(CNC(=O)c3cn4c5c(c(N6CCN(C)CC6)c(F)cc5c3=O)OCC4C)cc2)cc(OC)c1OC (stereo not given),985,286,
O=C1CC(C(=O)NCc2ccc(CNCC(=O)C3CC4CCC3C4)cc2)c2ccccc21 (stereo not given),,,IC50 [2]: 195 µM; Ki [2]: 120 µM
CN(CCCN1c2ccccc2CCc2ccccc21)C(=O)CCCCCNC(=O)C[C@@H](Cc1ccccc1)NC(=O)OC(C)(C)C,,,Kd [9]: 2.47 µM; IC50 [10]: 183 µM; Ki [10]: 122 µM
O=C(NCCOCCOCCOCCNC(=O)c1cccc(-c2cccnc2)c1)c1cccc(-c2cccnc2)c1,22,6,Kd [4]: 22 µM; Kd [8]: 297 µM; Kd [5]: 56 µM; Ki [2]: 35 µM; Ki [3]: 214 µM
CC1COc2c(N3CCN(C)CC3)c(F)cc3c(=O)c(C(=O)NCCCNC(=O)c4cn5c6c(c(N7CCN(C)CC7)c(F)cc6c4=O)OCC5C)cn1c23 (stereo not given),303,88,
CC1COc2c(N3CCN(C)CC3)c(F)cc3c(=O)c(C(=O)N(C)CCCN4c5ccccc5CCc5ccccc54)cn1c23 (stereo not given),,,IC50 [6]: 41 µM; IC50 [7]: 227 µM
CNC(=O)CSC,,,IC50 [6]: 1160 µM
O=C(NCCOCCOCCNC(=O)c1cccc(-c2cccnc2)c1)c1cccc(-c2cccnc2)c1,99,29,
COc1cc(CC(=O)NCCOCCOCCOCCNC(=O)c2cn3c4c(c(N5CCN(C)CC5)c(F)cc4c2=O)OCC3C)cc(OC)c1OC (stereo not given),7,2,Kd [4]: 7 µM
O=C1CC(C(=O)NCCCNCC(=O)C2CC3CCC2C3)c2ccccc21 (stereo not given),,,IC50 [2]: 330 µM; Ki [2]: 203 µM
CC1COc2c(N3CCN(C)CC3)c(F)cc3c(=O)c(C(=O)NCCOCCOCCOCCNC(=O)CCc4nc(-c5ccncc5)no4)cn1c23 (stereo not given),24,7,Kd [4]: 24 µM
CC1COc2c(N3CCN(C)CC3)c(F)cc3c(=O)c(C(=O)NCCOCCOCCNC(=O)c4cn5c6c(c(N7CCN(C)CC7)c(F)cc6c4=O)OCC5C)cn1c23 (stereo not given),383,111,
O=C1CC(C(=O)NCCOCCOCCNCC(=O)C2CC3CCC2C3)c2ccccc21 (stereo not given),,,IC50 [2]: 298 µM; Ki [2]: 183 µM

# Continued, in another order:
IC50 [1] [µM],Ki [1] [µM],SMILES,other results
97,28,COc1cc(CC(=O)NCCOCCOCCNC(=O)c2cccc(-c3cccnc3)c2)cc(OC)c1OC,
52,15,CC1COc2c(N3CCN(C)CC3)c(F)cc3c(=O)c(C(=O)NCCCNC(=O)CCc4nc(-c5ccncc5)no4)cn1c23 (stereo not given),
44,13,COc1cc(CC(=O)NCCCCCCNC(=O)c2cccc(-c3cccnc3)c2)cc(OC)c1OC,Kd [4]: 44 µM; Kd [8]: 488 µM; Kd [5]: 139 µM; Ki [2]: 85 µM; Ki [3]: 351 µM
91,26,O=C(NCc1ccc(CNC(=O)c2cccc(-c3cccnc3)c2)cc1)c1cccc(-c2cccnc2)c1,
39,11,COc1cc(CC(=O)NCCCNC(=O)c2cn3c4c(c(N5CCN(C)CC5)c(F)cc4c2=O)OCC3C)cc(OC)c1OC (stereo not given),Kd [4]: 39 µM
33,9,COc1cc(CC(=O)NCCCCCCNC(=O)c2cn3c4c(c(N5CCN(C)CC5)c(F)cc4c2=O)OCC3C)cc(OC)c1OC (stereo not given),Kd [4]: 33 µM
93,27,COc1cc(CC(=O)NCCOCCOCCOCCNC(=O)c2cccc(-c3cccnc3)c2)cc(OC)c1OC,
25,7,COc1cc(CC(=O)NCc2ccc(CNC(=O)c3cccc(-c4cccnc4)c3)cc2)cc(OC)c1OC,Kd [4]: 25 µM; Kd [8]: 392 µM; Ki [3]: 282 µM
193,56,CC1COc2c(N3CCN(C)CC3)c(F)cc3c(=O)c(C(=O)NCc4ccc(CNC(=O)CCc5nc(-c6ccncc6)no5)cc4)cn1c23 (stereo not given),
